Test [1] concerns the target Potassium voltage-gated channel subfamily KQT member 2 (Rattus norvegicus, UniProt O88943, W236L). In words: potentiation of rat KCNQ2 current – cell-based, automated electrophysiology, mechanism study for KCNQ2 potentiator project, dose response (AID 2603). The class given is functional.
Test [2] deals with T1, Bcl-2-related protein A1 (Mus musculus, UniProt Q07440).
T1 sequence (Q07440 whole entry): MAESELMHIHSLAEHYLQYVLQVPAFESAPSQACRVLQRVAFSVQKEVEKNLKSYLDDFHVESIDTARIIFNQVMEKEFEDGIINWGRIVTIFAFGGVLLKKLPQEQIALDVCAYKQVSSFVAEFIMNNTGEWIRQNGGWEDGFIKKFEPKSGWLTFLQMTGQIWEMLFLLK
The class given is functional.

In test [3] the target is T2, Ubiquitin-conjugating enzyme E2 N (Homo sapiens, UniProt P61088).
T2 sequence (P61088 whole entry): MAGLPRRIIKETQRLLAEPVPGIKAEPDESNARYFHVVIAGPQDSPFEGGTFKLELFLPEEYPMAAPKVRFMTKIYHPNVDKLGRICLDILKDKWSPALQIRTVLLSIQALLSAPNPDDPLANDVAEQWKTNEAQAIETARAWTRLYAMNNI
The format is functional.

The target of test [4] is T2, Ubiquitin-conjugating enzyme E2 N. The class given is functional. The source holds these as a separate data set.
Test [5] deals with T3, High affinity choline transporter 1 (Homo sapiens, UniProt Q9GZV3).
T3 sequence (Q9GZV3 whole entry): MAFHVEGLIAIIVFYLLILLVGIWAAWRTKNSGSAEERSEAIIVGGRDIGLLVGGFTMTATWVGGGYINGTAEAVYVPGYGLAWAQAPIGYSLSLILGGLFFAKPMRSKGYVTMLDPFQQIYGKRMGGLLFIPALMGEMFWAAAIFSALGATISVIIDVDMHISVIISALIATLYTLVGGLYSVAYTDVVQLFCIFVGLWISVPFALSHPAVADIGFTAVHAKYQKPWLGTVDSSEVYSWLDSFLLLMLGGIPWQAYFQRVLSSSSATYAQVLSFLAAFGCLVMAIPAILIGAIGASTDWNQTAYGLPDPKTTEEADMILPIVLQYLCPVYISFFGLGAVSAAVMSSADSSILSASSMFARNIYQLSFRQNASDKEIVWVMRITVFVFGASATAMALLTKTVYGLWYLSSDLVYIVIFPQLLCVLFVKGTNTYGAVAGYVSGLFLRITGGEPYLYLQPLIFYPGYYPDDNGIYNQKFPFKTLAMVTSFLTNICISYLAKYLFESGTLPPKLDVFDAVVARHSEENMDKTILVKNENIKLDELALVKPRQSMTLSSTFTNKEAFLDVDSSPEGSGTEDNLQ
As to the kind of experiment: human choline transporter blockers, potency – cell-based, 5-point CRC, membrane potential dye, dose response (AID 504840). The class given is functional.

Test [6] relates to Vero. As to the kind of experiment: viability of Vero cells under compound – cytotoxicity control for flavivirus capping enzyme inhibitors (AID 588742). The class given is functional. To be noted: Chlorocebus sabaeus.
In test [7] the target is T4, Protein RecA (Mycobacterium tuberculosis, UniProt P9WHJ3).
T4 sequence (P9WHJ3 whole entry): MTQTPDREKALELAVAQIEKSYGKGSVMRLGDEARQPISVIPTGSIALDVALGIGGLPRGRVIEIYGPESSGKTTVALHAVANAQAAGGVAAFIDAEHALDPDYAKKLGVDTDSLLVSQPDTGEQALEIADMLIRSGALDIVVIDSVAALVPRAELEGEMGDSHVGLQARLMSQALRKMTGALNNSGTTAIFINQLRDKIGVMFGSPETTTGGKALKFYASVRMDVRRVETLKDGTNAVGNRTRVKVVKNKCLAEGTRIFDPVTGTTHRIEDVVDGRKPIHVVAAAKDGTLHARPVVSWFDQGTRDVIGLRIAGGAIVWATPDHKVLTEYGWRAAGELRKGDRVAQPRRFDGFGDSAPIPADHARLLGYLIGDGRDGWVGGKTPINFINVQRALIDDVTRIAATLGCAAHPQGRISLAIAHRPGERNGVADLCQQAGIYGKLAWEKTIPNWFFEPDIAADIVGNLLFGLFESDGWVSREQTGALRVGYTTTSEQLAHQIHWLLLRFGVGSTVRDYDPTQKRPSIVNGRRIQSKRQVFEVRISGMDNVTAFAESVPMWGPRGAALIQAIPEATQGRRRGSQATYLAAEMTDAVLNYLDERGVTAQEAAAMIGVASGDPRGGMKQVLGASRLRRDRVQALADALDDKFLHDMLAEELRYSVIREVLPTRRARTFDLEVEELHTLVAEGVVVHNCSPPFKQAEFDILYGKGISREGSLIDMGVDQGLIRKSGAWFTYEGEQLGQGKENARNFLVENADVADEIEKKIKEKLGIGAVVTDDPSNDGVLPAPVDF
As to the kind of experiment: Fluorescence Cell-Free Homogeneous Dose Retest to Identify Inhibitors of RecA-Intein Splicing Activity. [Related pubchem assays (depositor defined):AID2097, AID2223, AID489010, AID492950]. The class given is functional.

Test [8] deals with T3, High affinity choline transporter 1. In words: human choline transporter blockers, potency – cell-based, 10-point CRC, membrane potential dye, dose response (AID 588401).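 Note: membrane potential dye fluorescence of choline-evoked depolarization via CHT.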 The format is functional.
The target of test [9] is Genome polyprotein (dengue virus type 2, UniProt P29990). In words: flavivirus cap methylation enzyme inhibition – biochemical, confirmation dose response, primary screen (AID 588689). The class given is functional.
Test [10] can be described thus: reduction of Shn3 3'UTR-driven luciferase in osteoblasts – cell-based, Clone20 osteoblasts, firefly luciferase, cherry-picked, dose response (AID 624132).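 Note: firefly luciferase luminescence from reporter carrying the Shn3 3'UTR in osteoblasts.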 The format is functional.
Test [11] is described as follows: loss of viability in HepG2 cells – cell-based, CellTiter-Glo, cherry-picked, cytotoxicity control for Shn3 inhibitor project, dose response (AID 624134). The format is functional. (In ATP-based viability assays light output follows the ATP content of the culture.)
Test [12] is described as follows: non-specific 3'UTR reporter inhibition in Clone20-Shn3RL – cell-based, Renilla luciferase, cherry-picked, counter-screen for Shn3 inhibitor project, dose response (AID 624133). The format is functional. For orientation: The purpose of a counterscreen is to sort out artefacts and off-target activity.
For test [13], the target named is T5, Hepatocyte nuclear factor 4-alpha (Homo sapiens, UniProt P41235).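 Note: biochemical luminescence-based dose-response counterscreen measuring inhibition of HNF4 dimerization, run alongside a screen for blockers of ABHD5–perilipin-5 interaction; split luciferase complementation of HNF4 fusion proteins in cell lysate measuring dimerization.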
T5 sequence (P41235 whole entry): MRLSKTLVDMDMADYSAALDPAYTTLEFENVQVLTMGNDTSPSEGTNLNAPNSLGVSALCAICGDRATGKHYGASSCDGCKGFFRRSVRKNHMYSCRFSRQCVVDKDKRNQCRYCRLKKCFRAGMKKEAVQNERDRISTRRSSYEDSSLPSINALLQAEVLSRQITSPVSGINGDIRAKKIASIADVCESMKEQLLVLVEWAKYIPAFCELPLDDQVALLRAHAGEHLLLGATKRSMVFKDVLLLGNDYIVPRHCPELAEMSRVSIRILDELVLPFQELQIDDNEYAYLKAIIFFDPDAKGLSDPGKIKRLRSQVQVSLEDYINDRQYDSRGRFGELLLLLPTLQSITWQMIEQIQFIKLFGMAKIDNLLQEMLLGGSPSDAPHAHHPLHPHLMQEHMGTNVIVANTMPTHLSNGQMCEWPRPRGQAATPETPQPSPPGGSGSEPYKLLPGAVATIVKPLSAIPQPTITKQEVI
The format is functional, cell-based.

In test [14] the target is ATP-binding cassette sub-family B member 6 (Homo sapiens, UniProt Q9NP58). As to the kind of experiment: ABCB6 transporter inhibitors, porphyrin accumulation, dose response, flow cytometry, K562-ABCB6 cells, cherry pick 02 (AID 624487). The format is functional. To be noted: read-out: EC50_MICROM. Background: In flow cytometry, cells or beads pass a laser one at a time.

Test [15] is described as follows: Counterscreen for IDE inhibitors: Luminescence-based cell-based high throughput dose response assay to identify compounds that are cytotoxic to HEK cells. [Related pubchem assays: 434962 (Primary screen (IDE inhibitors in singlicate)), 449730 (Counterscreen (Cytotoxicity in triplicate)), 435028 (Confirmation (IDE inhibitors in triplicate)) …. The conditions noted are these: HEK293. The class given is functional.

Test [16] deals with T6, Insulin-degrading enzyme (Homo sapiens, UniProt P14735).
T6 sequence (P14735 whole entry): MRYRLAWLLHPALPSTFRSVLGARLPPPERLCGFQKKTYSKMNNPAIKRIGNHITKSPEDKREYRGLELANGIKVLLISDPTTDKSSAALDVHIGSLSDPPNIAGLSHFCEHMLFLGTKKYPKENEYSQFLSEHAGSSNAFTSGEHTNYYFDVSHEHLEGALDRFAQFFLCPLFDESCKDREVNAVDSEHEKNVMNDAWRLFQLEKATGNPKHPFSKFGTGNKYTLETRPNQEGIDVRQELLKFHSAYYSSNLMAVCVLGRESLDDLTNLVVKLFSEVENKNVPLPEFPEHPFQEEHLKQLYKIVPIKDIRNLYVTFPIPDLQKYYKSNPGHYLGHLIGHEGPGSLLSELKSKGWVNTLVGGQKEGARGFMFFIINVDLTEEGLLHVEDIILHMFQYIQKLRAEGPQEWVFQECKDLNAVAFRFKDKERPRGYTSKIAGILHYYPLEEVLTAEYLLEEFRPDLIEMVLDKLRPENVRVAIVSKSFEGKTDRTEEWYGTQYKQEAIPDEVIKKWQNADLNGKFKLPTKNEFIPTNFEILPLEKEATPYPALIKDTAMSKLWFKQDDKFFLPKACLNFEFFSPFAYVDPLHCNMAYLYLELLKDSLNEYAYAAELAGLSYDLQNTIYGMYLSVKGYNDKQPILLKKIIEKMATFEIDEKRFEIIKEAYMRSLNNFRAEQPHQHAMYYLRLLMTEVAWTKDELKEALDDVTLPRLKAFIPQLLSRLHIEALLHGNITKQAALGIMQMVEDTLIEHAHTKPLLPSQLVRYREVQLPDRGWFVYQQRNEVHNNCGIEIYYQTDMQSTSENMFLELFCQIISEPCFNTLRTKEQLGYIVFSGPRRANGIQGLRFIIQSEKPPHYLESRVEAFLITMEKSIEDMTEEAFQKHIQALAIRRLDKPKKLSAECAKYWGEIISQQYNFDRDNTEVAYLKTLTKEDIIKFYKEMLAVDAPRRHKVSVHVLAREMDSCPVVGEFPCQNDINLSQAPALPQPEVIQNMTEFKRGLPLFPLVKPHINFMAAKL
In words: Dose Response: Fluorescence polarization-based cell-based high throughput dose response assay for inhibitors of insulin-degrading enzyme (IDE). [Related pubchem assays: 434962 (Primary screen (IDE inhibitors in singlicate)), 449730 (Counterscreen (Cytotoxicity in triplicate)), 435028 (Confirmation (IDE inhibitors in triplicate)), 434984 (Summary …. The format is functional.

The target of test [17] is DNA dC->dU-editing enzyme APOBEC-3A (Homo sapiens, UniProt P31941). In words: Dose Response confirmation of small molecule APOBEC3A DNA Deaminase Inhibitors via a fluorescence-based single-stranded DNA deaminase assay. [Related pubchem assays (depositor defined):AID493011, AID493024]. The format is functional.
Test [18] concerns the target DNA dC->dU-editing enzyme APOBEC-3G (Homo sapiens, UniProt Q9HC16). The class given is functional.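 Note: Dose-response counterscreen measuring inhibition of APOBEC3G DNA deaminase activity, run while confirming APOBEC3A inhibitors.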

Activity calls are given as the source filed them.

Chain of ATP-binding cassette sub-family B member 6 (Q9NP58 whole entry): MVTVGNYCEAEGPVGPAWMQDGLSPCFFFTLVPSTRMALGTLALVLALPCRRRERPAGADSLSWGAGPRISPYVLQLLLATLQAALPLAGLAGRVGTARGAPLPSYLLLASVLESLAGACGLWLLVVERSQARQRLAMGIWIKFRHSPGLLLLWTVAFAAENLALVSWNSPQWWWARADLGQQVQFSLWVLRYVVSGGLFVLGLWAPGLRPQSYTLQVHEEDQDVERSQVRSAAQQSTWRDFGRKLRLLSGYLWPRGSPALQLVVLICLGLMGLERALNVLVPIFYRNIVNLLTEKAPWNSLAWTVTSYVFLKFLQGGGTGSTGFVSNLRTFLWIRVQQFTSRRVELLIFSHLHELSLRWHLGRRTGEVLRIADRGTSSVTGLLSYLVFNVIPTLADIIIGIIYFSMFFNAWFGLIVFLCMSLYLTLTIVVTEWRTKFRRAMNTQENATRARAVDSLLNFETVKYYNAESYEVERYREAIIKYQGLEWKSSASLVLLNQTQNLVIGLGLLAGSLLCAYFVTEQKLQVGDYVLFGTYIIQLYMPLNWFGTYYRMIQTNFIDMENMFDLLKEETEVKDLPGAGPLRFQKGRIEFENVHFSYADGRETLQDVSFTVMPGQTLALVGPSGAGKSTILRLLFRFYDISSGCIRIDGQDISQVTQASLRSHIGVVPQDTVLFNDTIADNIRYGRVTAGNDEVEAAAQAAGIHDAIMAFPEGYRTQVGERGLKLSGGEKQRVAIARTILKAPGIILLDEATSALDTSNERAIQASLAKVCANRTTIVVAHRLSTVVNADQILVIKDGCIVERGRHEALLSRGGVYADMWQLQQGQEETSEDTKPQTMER
Chain of Potassium voltage-gated channel subfamily KQT member 2 (O88943 whole entry W236L): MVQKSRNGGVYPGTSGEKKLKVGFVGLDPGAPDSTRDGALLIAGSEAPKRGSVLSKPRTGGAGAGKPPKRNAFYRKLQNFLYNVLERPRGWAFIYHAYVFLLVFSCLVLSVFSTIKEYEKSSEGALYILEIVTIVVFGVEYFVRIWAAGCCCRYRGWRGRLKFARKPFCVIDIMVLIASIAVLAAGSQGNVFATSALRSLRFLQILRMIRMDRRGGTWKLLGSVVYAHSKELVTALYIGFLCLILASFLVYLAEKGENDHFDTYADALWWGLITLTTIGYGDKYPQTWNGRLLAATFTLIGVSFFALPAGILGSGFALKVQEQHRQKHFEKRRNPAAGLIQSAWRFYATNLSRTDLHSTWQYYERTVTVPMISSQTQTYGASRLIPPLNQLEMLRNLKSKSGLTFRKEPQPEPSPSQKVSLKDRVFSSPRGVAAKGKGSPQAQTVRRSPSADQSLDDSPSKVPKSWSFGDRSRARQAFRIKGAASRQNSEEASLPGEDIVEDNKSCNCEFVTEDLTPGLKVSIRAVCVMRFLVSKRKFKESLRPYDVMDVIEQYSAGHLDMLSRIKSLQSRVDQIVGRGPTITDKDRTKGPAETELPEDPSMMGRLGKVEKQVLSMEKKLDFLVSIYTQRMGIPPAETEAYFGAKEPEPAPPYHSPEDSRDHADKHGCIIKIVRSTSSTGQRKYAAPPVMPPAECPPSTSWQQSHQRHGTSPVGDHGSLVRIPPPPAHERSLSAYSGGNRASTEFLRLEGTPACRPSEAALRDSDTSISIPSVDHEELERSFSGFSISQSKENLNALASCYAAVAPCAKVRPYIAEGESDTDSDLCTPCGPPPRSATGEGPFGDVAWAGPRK
Chain of DNA dC->dU-editing enzyme APOBEC-3G (Q9HC16 whole entry): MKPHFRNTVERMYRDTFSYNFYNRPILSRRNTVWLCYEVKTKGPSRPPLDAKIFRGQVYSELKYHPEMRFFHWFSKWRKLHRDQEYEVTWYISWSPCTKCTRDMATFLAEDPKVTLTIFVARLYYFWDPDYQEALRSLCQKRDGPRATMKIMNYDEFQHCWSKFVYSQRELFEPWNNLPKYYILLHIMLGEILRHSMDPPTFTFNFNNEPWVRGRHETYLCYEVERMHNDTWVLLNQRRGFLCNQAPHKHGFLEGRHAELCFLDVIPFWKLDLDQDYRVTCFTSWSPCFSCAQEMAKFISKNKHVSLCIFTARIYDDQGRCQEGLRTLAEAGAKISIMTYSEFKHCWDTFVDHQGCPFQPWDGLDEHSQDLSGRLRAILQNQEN
Chain of DNA dC->dU-editing enzyme APOBEC-3A (P31941 whole entry): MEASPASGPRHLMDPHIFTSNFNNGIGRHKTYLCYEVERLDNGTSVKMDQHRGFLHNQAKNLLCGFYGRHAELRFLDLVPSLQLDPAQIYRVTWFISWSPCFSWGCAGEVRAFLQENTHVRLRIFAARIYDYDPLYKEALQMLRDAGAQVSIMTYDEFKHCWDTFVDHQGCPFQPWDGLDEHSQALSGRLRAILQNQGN
Chain of Genome polyprotein (P29990 2492-3391 limits assumed): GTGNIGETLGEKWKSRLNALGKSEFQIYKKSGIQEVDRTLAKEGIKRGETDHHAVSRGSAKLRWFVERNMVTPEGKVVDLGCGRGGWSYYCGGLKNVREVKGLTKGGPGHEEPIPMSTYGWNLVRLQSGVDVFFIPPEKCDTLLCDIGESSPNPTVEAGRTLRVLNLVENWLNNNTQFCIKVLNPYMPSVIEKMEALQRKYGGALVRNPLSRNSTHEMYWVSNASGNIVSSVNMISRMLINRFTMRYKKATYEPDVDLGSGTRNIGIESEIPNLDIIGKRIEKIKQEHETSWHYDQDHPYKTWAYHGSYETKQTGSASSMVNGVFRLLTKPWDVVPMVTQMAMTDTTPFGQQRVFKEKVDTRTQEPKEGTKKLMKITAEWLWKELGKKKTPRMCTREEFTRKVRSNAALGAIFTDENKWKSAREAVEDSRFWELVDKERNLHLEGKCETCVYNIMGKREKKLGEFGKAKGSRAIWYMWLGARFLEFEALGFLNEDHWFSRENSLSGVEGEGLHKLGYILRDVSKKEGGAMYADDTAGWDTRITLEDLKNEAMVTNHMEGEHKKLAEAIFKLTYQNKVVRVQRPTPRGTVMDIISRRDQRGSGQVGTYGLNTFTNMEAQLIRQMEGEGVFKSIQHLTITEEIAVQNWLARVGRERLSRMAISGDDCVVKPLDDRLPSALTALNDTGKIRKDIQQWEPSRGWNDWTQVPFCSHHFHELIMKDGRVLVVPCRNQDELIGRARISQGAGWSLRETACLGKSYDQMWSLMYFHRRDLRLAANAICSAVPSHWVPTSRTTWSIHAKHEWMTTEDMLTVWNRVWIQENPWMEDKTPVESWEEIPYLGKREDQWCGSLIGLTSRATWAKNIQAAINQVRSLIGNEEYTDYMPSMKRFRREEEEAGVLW

A word on the IC50: it is the concentration that inhibits the measured activity by half. The CC50 is the concentration at which the toxic effect on the cells reaches its halfway point. By AC50 is commonly meant the concentration at which the activity in the assay is half-maximal. On to `CCCc1nnc(NC(=O)c2nc(S(=O)(=O)Cc3cccc(C)c3)ncc2Cl)s1`, for which the EC50 in test [1] is 2.89 µM (active); in test [7], > 380 µM (inactive); in [14], 60.6 µM (active). The IC50 in test [2] was > 20 µM (inactive); in test [3], 12.3 µM (active); in [4], > 20 µM (inactive); in test [5], 3.9 µM (active); in test [8], 3.16 µM (active); in test [9] it was > 100 µM (active). In addition, in test [13], the 50% inhibitory concentration (IC50) was 5.71 µM (active). The CC50 in [6] is > 40 µM (active). In addition, the AC50 is 2.55 µM (active) in test [10], > 70 µM (inactive) in [11] and 10 µM (active) in [12].

As to `CCN(CC)C(=O)c1ccc(/C=C/c2c[nH]c3ccccc23)[n+](C)c1`, the IC50 is > 55.7 µM (not active) in [15], 16.1 µM (not active) in test [16], 1.96 µM (active) in test [17] and 2.1 µM (active) in test [18].

The record behind these values is ChEMBL document CHEMBL1201862, “PubChem BioAssay data set” (2004).
